Source: patent US20230085307A1, “PYRIDAZINONE COMPOUND AND HERBICIDE” (NISSAN CHEMICAL CORPORATION, priority 2019, published 2023)

Assays:
barnyard grass [1] = test: Test Example 3: herbicidal effect by foliage application, Wagner pot (Table 18, symbol H); format: in vivo, barnyard grass (Echinochloa crus-galli); conditions: for herbicidal effect on barnyard grass (H): 320 g/ha
Method in brief: (§1)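 Plants were sown in alluvial soil held under 0.1–0.5 cm standing water and grown 14 days in a greenhouse at 25–30 °C. An emulsifiable formulation, water-diluted to the set dose, was then sprayed onto the foliage, and effects were scored three weeks later using previously defined criteria.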

Chinese sprangletop = test: Test Example 3: herbicidal effect by foliage application, Wagner pot (Table 18, symbol D); format: in vivo, chinese sprangletop (Leptochloa chinensis); conditions: for herbicidal effect on Chinese sprangletop (D): 320 g/ha
Method in brief: as §1

rice flat sedge = test: Test Example 3: herbicidal effect by foliage application, Wagner pot (Table 18, symbol E); format: in vivo, rice flat sedge (Cyperus iria); conditions: for herbicidal effect on rice flat sedge (E): 320 g/ha
Method in brief: as §1

southern crabgrass = test: Test Example 5: herbicidal effect by foliage application, plastic box (Table 20, symbol F); format: in vivo, southern crabgrass (Digitaria ciliaris); conditions: evaluated three weeks after application; for Herbicidal effect by foliage application, F: southern crabgrass: amount of applied herbicide 320 g/ha
Method in brief: (§2)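 Plants were sown into sterilized diluvial soil under about 1.5 cm cover and kept in a greenhouse at 25° C. to 30° C. Fourteen days on, foliage received an even spray of the diluted emulsion. Herbicidal or crop effect was judged three weeks afterwards.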

green foxtail = test: Test Example 5: herbicidal effect by foliage application, plastic box (Table 20, symbol G); format: in vivo, green foxtail (Setaria viridis); conditions: evaluated three weeks after application; for Herbicidal effect by foliage application, G: green foxtail: amount of applied herbicide 320 g/ha
Method in brief: as §2

barnyard grass [2] = test: Test Example 5: herbicidal effect by foliage application, plastic box (Table 20, symbol H); format: in vivo, barnyard grass (Echinochloa crus-galli); conditions: evaluated three weeks after application; for Herbicidal effect by foliage application, H: barnyard grass: amount of applied herbicide 320 g/ha
Method in brief: as §2

wild oat = test: Test Example 5: herbicidal effect by foliage application, plastic box (Table 20, symbol I); format: in vivo, wild oat (Avena fatua); conditions: evaluated three weeks after application; for Herbicidal effect by foliage application, I: wild oat: amount of applied herbicide 320 g/ha
Method in brief: as §2

blackgrass = test: Test Example 5: herbicidal effect by foliage application, plastic box (Table 20, symbol J); format: in vivo, blackgrass (Alopecurus myosuroides); conditions: evaluated three weeks after application; for Herbicidal effect by foliage application, J: blackgrass: amount of applied herbicide 320 g/ha
Method in brief: as §2

Italian ryegrass = test: Test Example 5: herbicidal effect by foliage application, plastic box (Table 20, symbol K); format: in vivo, Italian ryegrass (Lolium multiflorum); conditions: evaluated three weeks after application; for Herbicidal effect by foliage application, K: Italian ryegrass: amount of applied herbicide 320 g/ha
Method in brief: as §2

windgrass = test: Test Example 5: herbicidal effect by foliage application, plastic box (Table 20, symbol L); format: in vivo, windgrass (Apera spica-venti); conditions: evaluated three weeks after application; for Herbicidal effect by foliage application, L: windgrass: amount of applied herbicide 320 g/ha
Method in brief: as §2

velvetleaf = test: Test Example 5: herbicidal effect by foliage application, plastic box (Table 20, symbol M); format: in vivo, velvetleaf (Abutilon theophrasti); conditions: evaluated three weeks after application; for Herbicidal effect by foliage application, M: velvetleaf: amount of applied herbicide 320 g/ha
Method in brief: as §2

redroot pigweed = test: Test Example 5: herbicidal effect by foliage application, plastic box (Table 20, symbol N); format: in vivo, redroot pigweed (Amaranthus retroflexus); conditions: evaluated three weeks after application; for Herbicidal effect by foliage application, N: redroot pigweed: amount of applied herbicide 320 g/ha
Method in brief: as §2

lambsquarters = test: Test Example 5: herbicidal effect by foliage application, plastic box (Table 20, symbol O); format: in vivo, lambsquarters (Chenopodium album); conditions: evaluated three weeks after application; for Herbicidal effect by foliage application, O: lambsquarters: amount of applied herbicide 320 g/ha
Method in brief: as §2

chickweed = test: Test Example 5: herbicidal effect by foliage application, plastic box (Table 20, symbol P); format: in vivo, common chickweed (Stellaria media); conditions: evaluated three weeks after application; for Herbicidal effect by foliage application, P: chickweed: amount of applied herbicide 320 g/ha
Method in brief: as §2

persian speedwell = test: Test Example 5: herbicidal effect by foliage application, plastic box (Table 20, symbol R); format: in vivo, Persian speedwell (Veronica persica); conditions: evaluated three weeks after application; for Herbicidal effect by foliage application, R: persian speedwell: amount of applied herbicide 320 g/ha
Method in brief: as §2

[3] = amount of applied herbicide 320 g/ha
[4] = foliage application after 14-day growth
[5] = 320 g/ha, foliage application after 14-day growth

| SMILES | herbicidal effect on barnyard grass (H) (barnyard grass [1]) | herbicidal effect on Chinese sprangletop (D) (Chinese sprangletop) | herbicidal effect on rice flat sedge (E) (rice flat sedge) | Herbicidal effect by foliage application, F: southern crabgrass (southern crabgrass; [4]) | Herbicidal effect by foliage application, G: green foxtail (green foxtail; [4]) | Herbicidal effect by foliage application, H: barnyard grass (barnyard grass [2]; [4]) | Herbicidal effect by foliage application, I: wild oat (wild oat; [4]) | Herbicidal effect by foliage application, J: blackgrass (blackgrass; [4]) | Herbicidal effect by foliage application, K: Italian ryegrass (Italian ryegrass; [4]) | Herbicidal effect by foliage application, L: windgrass (windgrass; [4]) | Herbicidal effect by foliage application, M: velvetleaf (velvetleaf; [4]) | Herbicidal effect by foliage application, N: redroot pigweed (redroot pigweed; [4]) | Herbicidal effect by foliage application, O: lambsquarters (lambsquarters; [4]) | Herbicidal effect by foliage application, P: chickweed (chickweed; [4]) | Herbicidal effect by foliage application, R: persian speedwell (persian speedwell; [4]) | also measured |
| --- | --- | --- | --- | --- | --- | --- | --- | --- | --- | --- | --- | --- | --- | --- | --- | --- |
| Cc1nn(C)c(=O)c(-c2c(-c3cccc(OC(F)F)c3)sc3ccc(F)cc23)c1O [2-234] | – | – | – | – | – | – | – | – | – | – | – | – | – | – | – | herbicidal effect on H: barnyard grass (barnyard grass [1]; [3]): 3 (Herbicidal rate of 40% or more and less than 70%); herbicidal effect on D: Chinese sprangletop (Chinese sprangletop; [3]): 0 (Herbicidal rate of 5% or less (almost no effect)); herbicidal effect on E: rice flat sedge (rice flat sedge; [3]): 0 (Herbicidal rate of 5% or less (almost no effect)); herbicidal effect on F: southern crabgrass (criteria 0-5) (southern crabgrass; foliage application, 320 g/ha): 0 (Herbicidal rate of 5% or less (almost no effect)); herbicidal effect on G: green foxtail (criteria 0-5) (green foxtail; foliage application, 320 g/ha): 0 (Herbicidal rate of 5% or less (almost no effect)); herbicidal effect on H: barnyard grass (criteria 0-5) (barnyard grass [2]; foliage application, 320 g/ha): 0 (Herbicidal rate of 5% or less (almost no effect)); herbicidal effect on I: wild oat (criteria 0-5) (wild oat; foliage application, 320 g/ha): 0 (Herbicidal rate of 5% or less (almost no effect)); herbicidal effect on J: blackgrass (criteria 0-5) (blackgrass; foliage application, 320 g/ha): 0 (Herbicidal rate of 5% or less (almost no effect)); herbicidal effect on K: Italian ryegrass (criteria 0-5) (Italian ryegrass; foliage application, 320 g/ha): 0 (Herbicidal rate of 5% or less (almost no effect)); herbicidal effect on L: windgrass (criteria 0-5) (windgrass; foliage application, 320 g/ha): 0 (Herbicidal rate of 5% or less (almost no effect)); herbicidal effect on M: velvetleaf (criteria 0-5) (velvetleaf; foliage application, 320 g/ha): 0 (Herbicidal rate of 5% or less (almost no effect)); herbicidal effect on N: redroot pigweed (criteria 0-5) (redroot pigweed; foliage application, 320 g/ha): 4 (Herbicidal rate of 70% or more and less than 90%); herbicidal effect on O: lambsquarters (criteria 0-5) (lambsquarters; foliage application, 320 g/ha): 2 (Herbicidal rate of 20% or more and less than 40%); herbicidal effect on P: chickweed (criteria 0-5) (chickweed; foliage application, 320 g/ha): 5 (Herbicidal rate of 90% or more (almost completely withered)); herbicidal effect on R: persian speedwell (criteria 0-5) (persian speedwell; foliage application, 320 g/ha): 5 (Herbicidal rate of 90% or more (almost completely withered)) |
| CCSc1cccc(-c2sc3c(Cl)cccc3c2-c2c(O)c(C)nn(C)c2=O)c1 [4-092] | 5 (Herbicidal rate of 90% or more (almost completely withered)) | 3 (Herbicidal rate of 40% or more and less than 70%) | 4 (Herbicidal rate of 70% or more and less than 90%) | 4 (Herbicidal rate of 70% or more and less than 90%) | 3 (Herbicidal rate of 40% or more and less than 70%) | 3 (Herbicidal rate of 40% or more and less than 70%) | 1 (Herbicidal rate of 5% or more and less than 20%) | 0 (Herbicidal rate of 5% or less (almost no effect)) | 2 (Herbicidal rate of 20% or more and less than 40%) | 5 (Herbicidal rate of 90% or more (almost completely withered)) | 3 (Herbicidal rate of 40% or more and less than 70%) | 5 (Herbicidal rate of 90% or more (almost completely withered)) | 3 (Herbicidal rate of 40% or more and less than 70%) | 4 (Herbicidal rate of 70% or more and less than 90%) | 5 (Herbicidal rate of 90% or more (almost completely withered)) | – |
| CCSc1cccc(-c2sc3c(C)cccc3c2-c2c(O)c(C)nn(C)c2=O)c1 [4-122] | 5 (Herbicidal rate of 90% or more (almost completely withered)) | 0 (Herbicidal rate of 5% or less (almost no effect)) | 4 (Herbicidal rate of 70% or more and less than 90%) | 3 (Herbicidal rate of 40% or more and less than 70%) | 1 (Herbicidal rate of 5% or more and less than 20%) | 1 (Herbicidal rate of 5% or more and less than 20%) | 0 (Herbicidal rate of 5% or less (almost no effect)) | 1 (Herbicidal rate of 5% or more and less than 20%) | 4 (Herbicidal rate of 70% or more and less than 90%) | 4 (Herbicidal rate of 70% or more and less than 90%) | 4 (Herbicidal rate of 70% or more and less than 90%) | 4 (Herbicidal rate of 70% or more and less than 90%) | 4 (Herbicidal rate of 70% or more and less than 90%) | 5 (Herbicidal rate of 90% or more (almost completely withered)) | 4 (Herbicidal rate of 70% or more and less than 90%) | – |
| CCCC(=O)Oc1c(C)nn(C)c(=O)c1-c1c(-c2ccccc2CC)sc2c(Cl)cccc12 [4-063] | 5 (Herbicidal rate of 90% or more (almost completely withered)) | 3 (Herbicidal rate of 40% or more and less than 70%) | 4 (Herbicidal rate of 70% or more and less than 90%) | – | – | – | – | – | – | – | – | – | – | – | – | herbicidal effect on F: southern crabgrass (evaluation grade 0-5) (southern crabgrass; [5]): 0 (Herbicidal rate of 5% or less (almost no effect)); herbicidal effect on G: green foxtail (evaluation grade 0-5) (green foxtail; [5]): 0 (Herbicidal rate of 5% or less (almost no effect)); herbicidal effect on H: barnyard grass (evaluation grade 0-5) (barnyard grass [2]; [5]): 0 (Herbicidal rate of 5% or less (almost no effect)); herbicidal effect on I: wild oat (evaluation grade 0-5) (wild oat; [5]): 0 (Herbicidal rate of 5% or less (almost no effect)); herbicidal effect on J: blackgrass (evaluation grade 0-5) (blackgrass; [5]): 0 (Herbicidal rate of 5% or less (almost no effect)); herbicidal effect on K: Italian ryegrass (evaluation grade 0-5) (Italian ryegrass; [5]): 0 (Herbicidal rate of 5% or less (almost no effect)); herbicidal effect on L: windgrass (evaluation grade 0-5) (windgrass; [5]): 0 (Herbicidal rate of 5% or less (almost no effect)); herbicidal effect on M: velvetleaf (evaluation grade 0-5) (velvetleaf; [5]): 0 (Herbicidal rate of 5% or less (almost no effect)); herbicidal effect on N: redroot pigweed (evaluation grade 0-5) (redroot pigweed; [5]): 3 (Herbicidal rate of 40% or more and less than 70%); herbicidal effect on O: lambsquarters (evaluation grade 0-5) (lambsquarters; [5]): 1 (Herbicidal rate of 5% or more and less than 20%); herbicidal effect on P: chickweed (evaluation grade 0-5) (chickweed; [5]): 0 (Herbicidal rate of 5% or less (almost no effect)); herbicidal effect on R: persian speedwell (evaluation grade 0-5) (persian speedwell; [5]): 0 (Herbicidal rate of 5% or less (almost no effect)) |
